Non-standard residues stand in square brackets, D forms with d. Residues, ends and D or L forms follow the SMILES beside them. No end group written: not given here. pT = C[C@@H](OP(=O)(O)O)[C@H](N)C(=O)O
Experiments:
[1] = target: T1, A-CAT-Δ809 (Dictyostelium discoideum, UniProt P42527); test: Activation of truncated A-CAT-Δ809 kinase activity by phosphopeptides (Pi-pocket binding); assay type: biochemical; conditions: 22 °C, pH 7.0, mean and standard deviation of at least 3 separate experiments
T1 construct: A-CAT encompasses the α-kinase domain and Thr825 autophosphorylation site of MHCK-A; made in house; host or cells: E. coli (printed for A-CAT and A-CAT-D663A)
T1 sequence (P42527 552-809 limits assumed): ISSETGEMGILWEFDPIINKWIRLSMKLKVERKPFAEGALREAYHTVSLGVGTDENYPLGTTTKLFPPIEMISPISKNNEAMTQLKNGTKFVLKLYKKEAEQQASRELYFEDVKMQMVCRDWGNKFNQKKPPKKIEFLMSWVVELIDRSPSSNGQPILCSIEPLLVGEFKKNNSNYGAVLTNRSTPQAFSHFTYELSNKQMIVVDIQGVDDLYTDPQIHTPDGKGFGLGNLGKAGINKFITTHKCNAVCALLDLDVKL
Protocol: (c) The kinase activity of A-CAT-Δ809 was assayed in the presence of peptides with the sequences QQG(p)TMVMPD (closed circles) or a QQG(p)TMSMPD (open circles). […] Kinase activities are reported as a percentage of wild-type A-CAT activity.
To test whether a hydrophobic residue in the P + 2 position favors binding to the Pi-pocket, experiments were carried out using a truncated A-CAT (A-CAT-Δ809) that lacks the activating Thr825 site of autophosphorylation and two phosphopeptides: one with a valine and one with a serine at the P + 2 position (QQG(p)TMVMPD and QQG(p)TMSMPD) (Fig. 3c).
Assays were carried out at 22 °C in a buffer containing 2 mM MgCl2, 1 mM dithiothreitol and 20 mM TES, pH 7.0. Kinase assays contained 20 μM myelin basic protein (MBP), 0.5–2 μM A-CAT and 200 μM [γ-^32P]ATP (specific activity 100 cpm/pmol). At each time point, 20 μl aliquots of the reaction mixture were spotted onto squares of Whatman P81 phosphocellulose paper, which were then washed 1% phosphoric acid, immersed in ScintiVerse Universal LS Mixture (Fisher Scientific), and counted using a Beckman LS 9000 scintillation counter. Assays to measure A-CAT-Δ809 activity in the presence of the QQG(p)TMVMPD and QQG(p)TMSMPD peptides were carried out as described[29]. […] Data from the initial linear portion of the time courses were used to calculate kinase and ATPase activity.

[2] = tested on: T2, Nc1ncnc2c1ncn2[C@@H]1O[C@H](COP(=O)(O)OP(=O)(O)OP(=O)(O)O)[C@@H](O)[C@H]1O; test: ATPase assay by inorganic phosphate release (Pi ColorLock Gold) at 22 °C in 2 mM MgCl2, 1 mM dithiothreitol, 20 mM TES, pH 7.0.; assay type: biochemical
T2 construct: A-CAT: alpha-kinase domain and Thr825 autophosphorylation site of MHCK-A
Protocol: (§1) Assays were carried out at 22 °C in a buffer containing 2 mM MgCl2, 1 mM dithiothreitol and 20 mM TES, pH 7.0. Kinase assays contained 20 μM myelin basic protein (MBP), 0.5–2 μM A-CAT and 200 μM [γ-^32P]ATP (specific activity 100 cpm/pmol). At each time point, 20 μl aliquots of the reaction mixture were spotted onto squares of Whatman P81 phosphocellulose paper, which were then washed 1% phosphoric acid, immersed in ScintiVerse Universal LS Mixture (Fisher Scientific), and counted using a Beckman LS 9000 scintillation counter. Assays to measure A-CAT-Δ809 activity in the presence of the QQG(p)TMVMPD and QQG(p)TMSMPD peptides were carried out as described. ATPase activity was assayed using 250 μM ATP and release of inorganic phosphate (Pi) was measured using the Pi ColorLock Gold phosphate detection system (Innova Biosciences). Data from the initial linear portion of the time courses were used to calculate kinase and ATPase activity. Nucleotide binding assays using mant-ATP and mant-ADP were carried out as previously described. Results represent the mean and standard deviation of at least 3 separate experiments.

[3] = tested on: T2, Nc1ncnc2c1ncn2[C@@H]1O[C@H](COP(=O)(O)OP(=O)(O)OP(=O)(O)O)[C@@H](O)[C@H]1O; test: Radiometric kinase assay with [γ-32P]ATP and 20 μM myelin basic protein as phosphate acceptor (P81 paper) at 22 °C in 2 mM MgCl2, 1 mM dithiothreitol, 20 mM TES, pH 7.0.; assay type: biochemical
Protocol: as §1

[4] = target: T3, A-CAT WT (Dictyostelium discoideum, UniProt P42527); test: Nucleotide binding assay with fluorescent mant-ATP on purified A-CAT, carried out as previously described (ref 51); at least 3 separate experiments.; conditions: SD, n = 3
T3 construct: gene mhkA; A-CAT: alpha-kinase domain and Thr825 autophosphorylation site of MHCK-A; expressed in E. coli
T3 sequence (P42527 552-841): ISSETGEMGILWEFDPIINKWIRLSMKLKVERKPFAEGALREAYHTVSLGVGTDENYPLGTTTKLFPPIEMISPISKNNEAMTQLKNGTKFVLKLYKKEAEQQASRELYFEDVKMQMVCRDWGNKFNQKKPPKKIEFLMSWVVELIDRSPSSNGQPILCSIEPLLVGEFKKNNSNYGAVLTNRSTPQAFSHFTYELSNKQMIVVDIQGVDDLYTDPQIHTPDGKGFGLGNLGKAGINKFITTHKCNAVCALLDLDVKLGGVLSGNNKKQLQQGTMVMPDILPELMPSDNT
Protocol: as §1

[5] = target: T4, D663A (Dictyostelium discoideum, UniProt P42527, D663A); test: as above; conditions: read-out: mant-ATP Kd; SD, n = 3
T4 construct: gene mhkA; A-CAT: alpha-kinase domain and Thr825 autophosphorylation site of MHCK-A; expressed in E. coli
T4 sequence (P42527 552-841 D663A): T3 sequence (P42527 552-841)
Protocol: as §1

[6] = target: T5, D663S (Dictyostelium discoideum, UniProt P42527, D663S); test: as above; conditions: read-out: mant-ATP Kd; SD, n = 3
T5 construct: gene mhkA; A-CAT: alpha-kinase domain and Thr825 autophosphorylation site of MHCK-A
T5 sequence (P42527 552-841 D663S): T3 sequence (P42527 552-841)
Protocol: as §1

[7] = target: T6, Y647A (Dictyostelium discoideum, UniProt P42527, Y647A); test: as above; conditions: read-out: mant-ATP Kd; SD, n = 3
T6 construct: gene mhkA; A-CAT: alpha-kinase domain and Thr825 autophosphorylation site of MHCK-A
T6 sequence (P42527 552-841 Y647A): T3 sequence (P42527 552-841)
Protocol: as §1

[8] = target: T7, Y647F (Dictyostelium discoideum, UniProt P42527, Y647F); test: as above; conditions: read-out: mant-ATP Kd; SD, n = 3
T7 construct: gene mhkA; A-CAT: alpha-kinase domain and Thr825 autophosphorylation site of MHCK-A
T7 sequence (P42527 552-841 Y647F): T3 sequence (P42527 552-841)
Protocol: as §1

[9] = target: A-CAT D663A; test: mant-nucleotide binding to A-CAT D663A; set-up: species or system Dictyostelium
Protocol: as §1

[10] = target: A-CAT D663S; test: mant-nucleotide binding to A-CAT D663S; set-up: species or system Dictyostelium
Protocol: as §1

[11] = target: A-CAT Y647F; test: mant-nucleotide binding to A-CAT Y647F; set-up: species or system Dictyostelium; conditions: 22 °C, 2 mM MgCl2, 1 mM dithiothreitol, 20 mM TES, pH 7.0, mean and standard deviation of at least 3 separate experiments
Protocol: as §1

[12] = target: A-CAT Y647A; test: mant-nucleotide binding to A-CAT Y647A; set-up: species or system Dictyostelium
Protocol: as §1

[13] = target: A-CAT-Δ809, truncated A-CAT that lacks the activating Thr825 site of autophosphorylation (Dictyostelium)
[14] = substrate: Nc1ncnc2c1ncn2[C@@H]1O[C@H](COP(=O)(O)OP(=O)(O)OP(=O)(O)O)[C@@H](O)[C@H]1O; test: ATPase assay by inorganic phosphate release (Pi ColorLock Gold) at 22 °C in 2 mM MgCl2, 1 mM dithiothreitol, 20 mM TES, pH 7.0.; assay type: biochemical
Protocol: as §1

[15] = substrate: Nc1ncnc2c1ncn2[C@@H]1O[C@H](COP(=O)(O)OP(=O)(O)OP(=O)(O)O)[C@@H](O)[C@H]1O; test: Radiometric kinase assay with [γ-32P]ATP and 20 μM myelin basic protein as phosphate acceptor (P81 paper) at 22 °C in 2 mM MgCl2, 1 mM dithiothreitol, 20 mM TES, pH 7.0.; assay type: biochemical
Protocol: as §1

[16] = ATPase activity of A-CAT and mutants (phosphate release); assay type: biochemical; conditions: 22 °C, 2 mM MgCl2, 20 mM TES, pH 7.0; Pi ColorLock Gold phosphate detection; mean and standard deviation of at least 3 separate experiments
Protocol: as §1

[17] = tested on: myelin basic protein (MBP); test: Kinase activity of A-CAT and mutants towards myelin basic protein; assay type: biochemical; conditions: 20 μM MBP, 0.5–2 μM A-CAT, [γ-^32P]ATP; 22 °C, pH 7.0; mean and standard deviation of at least 3 separate experiments
Protocol: as §1

With `CSCC[C@H](NC(=O)[C@@H](NC(=O)CNC(=O)[C@H](CCC(N)=O)NC(=O)[C@@H](N)CCC(N)=O)[C@@H](C)OP(=O)(O)O)C(=O)N[C@H](C(=O)N[C@@H](CCSC)C(=O)N1CCC[C@H]1C(=O)N[C@@H](CC(=O)O)C(=O)O)C(C)C` [QQG(p)TMVMPD] (H-QQG[pT]MVMPD-OH) the Kd ([1]; hyperbolic fit of A-CAT-Δ809 kinase activity vs peptide, assayed as described in ref [29], 2 mM MgCl2, 1 mM dithiothreitol, 20 mM TES) was 38 ± 12 µM and the Vmax ([1]; kinase activity as a percentage of wild-type A-CAT activity, hyperbolic fit) was 61 ± 4%.

In the case of Y647F (Dictyostelium discoideum; Y647F), the Km [2] is reported as 64 ± 2 µM, the kcat [2] is reported as 0.00633 ± 0.00117 s⁻¹ and the Km [3] is reported as 65 ± 35 µM. For the same molecule, the kcat [3] was 0.00045 ± 0.000117 s⁻¹.

With `CNc1ccccc1C(=O)O[C@H]1[C@@H](O)[C@H](n2cnc3c(N)ncnc32)O[C@@H]1CO[P@@](=O)(O)O[P@](=O)(O)OP(=O)(O)O` [mant-ATP, 2'/3'-O-(N-methylanthraniloyl)adenosine 5'-triphosphate] the Kd [4] was 4.8 ± 0.6 µM, the Kd [5] was 3.2 ± 0.9 µM and the Kd [6] was 2.1 ± 0.5 µM. It also gave a Kd [7] of 10 ± 3 µM and a Kd [8] of 4.3 ± 1 µM.

For `CNc1ccccc1C(=O)O[C@H]1[C@@H](O)[C@H](n2cnc3c(N)ncnc32)O[C@@H]1COP(=O)(O)OP(=O)(O)O` [mant-ADP], the Kd ([9]; A-CAT D663A, 22 °C, 2 mM MgCl2, 1 mM dithiothreitol, 20 mM TES, pH 7.0, mean and standard deviation of at least 3 separate experiments) was 8 ± 2 µM, the “effect of the D663A mutation on nucleotide binding” value ([9]; compared with wild-type A-CAT) was “increased the affinity of A-CAT for nucleotide” and the Kd ([10]; A-CAT D663S, 22 °C, 2 mM MgCl2, 1 mM dithiothreitol, 20 mM TES, pH 7.0, mean and standard deviation of at least 3 separate experiments) was 12 ± 2 µM. The “effect of the D663S mutation on nucleotide binding” value ([10]; compared with wild-type A-CAT) was “increased the affinity of A-CAT for nucleotide”, the Kd [11] was 15 ± 2 µM and the Kd ([12]; A-CAT Y647A, 22 °C, 2 mM MgCl2, 1 mM dithiothreitol, 20 mM TES, pH 7.0, mean and standard deviation of at least 3 separate experiments) was 30 ± 2 µM. The “effect of the Y647A mutation on nucleotide binding” value ([12]; compared with wild-type A-CAT) was “weakened the binding”.

QQG[pT]MVMPD [QQG(p)TMVMPD phosphopeptide] gave a kinase activity of A-CAT-Δ809 assayed in the presence of the peptide; Kd from a hyperbolic curve fit [13] of 38 µM.

Molecule QQG[pT]MSMPD [QQG(p)TMSMPD phosphopeptide] has a kinase activity of A-CAT-Δ809 assayed in the presence of the peptide; Kd from a hyperbolic curve fit [13] of 98 µM.

B1: A-CAT WT (Dictyostelium discoideum) (protein)
chain: T3 sequence (P42527 552-841)
notes: A-CAT: alpha-kinase domain and Thr825 autophosphorylation site of MHCK-A; expressed in E. coli
For B1, the Km [14] was 35 ± 4 µM, the kcat [14] was 0.0317 ± 0.00167 s⁻¹ and the Km [15] was 23 ± 5 µM. For the same molecule, the kcat [15] was 0.0967 ± 0.00667 s⁻¹.

B2: WT: α-kinase domain and Thr825 autophosphorylation site of MHCK-A (protein)
chain: T3 sequence (P42527 552-841)
modifications: phosphothreonine at 612 (P-Thr612); phosphoaspartate at 663 (P-Asp663)
notes: α-kinase domain and Thr825 autophosphorylation site of MHCK-A
In the case of B2, the “ATPase Activity kcat” value [16] is reported as 0.0317 ± 0.0017 s⁻¹ and the “Kinase Activity kcat” value [17] is reported as 0.0967 ± 0.0067 s⁻¹.

Reference: paper PMC4876393, “Structure of the Dictyostelium Myosin-II Heavy Chain Kinase A (MHCK-A) α-kinase domain apoenzyme reveals a novel autoinhibited conformation” (Scientific Reports, 2016)
